Consider 16 compounds from patent publication US10239851B2 (priority 2014, dated 2019).

Read-outs that look alike come from different tables or passages of the source.

In data set [1] the test system is human prostate cancer PC-3. As to conditions: for Tumor volume (mm^3) (D0): D0 (baseline at grouping).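 As to all read-outs here: PC-3 tumors were established by implanting the cells under the skin of nude mice.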
Description: Test of the inhibitory activity of the water soluble cabazitaxel derivatives on subcutaneously xenografted tumor of human prostate cancer PC-3 in nude mice: evaluating and comparing the inhibitory activity of the water soluble cabazitaxel derivatives and cabazitaxel on subcutaneously xenografted tumor of human prostate cancer PC-3 in nude mice.
Human prostate cancer PC-3 cells were subcutaneously inoculated into nude mice. After the tumor volume reached 100-150 mm^3, the animals were randomly divided into several groups, and administered with the water soluble cabazitaxel derivatives of the present invention and cabazitaxel, respectively once on the same day (D0). The tumor volume was measured 2-3 times per week, the animals were weighed and the data were recorded until day 20 (D20) after grouping.
The tumor volume (V) was calculated according to the equation: V=½×a×b^2, wherein a and b represent the length and the width, respectively.
T/C (%)=(T−T0)/(C−C0)×100, wherein T and C represent the tumor volume at the end of the experiment; and T0 and C0 represent the tumor volume at the beginning of the experiment.
The nature of data set [2]: In vitro dissociation of the water soluble taxane derivatives in blood plasma of rat. The format is in vitro ADME, SD rats. The conditions noted are these: 37° C. On the procedure:
The obtained water soluble taxane derivatives were formulated as 0.2 mg/ml aqueous solutions. […] After 2 min, 5 min and 10 min of incubation, 0.2 ml of solutions were respectively taken from each of the samples, and added to acetonitrile (0.4 ml) cooled to −20° C. for precipitation of protein.

Data set [3] can be described thus: In vitro dissociation of the water soluble taxane derivatives in blood plasma of rabbit. The format is in vitro ADME, New Zealand white rabbits. As to conditions: 37° C. The procedure: The obtained water soluble taxane derivatives were formulated as 0.2 mg/ml aqueous solutions. […] After 5 min, 20 min and 60 min of incubation, 0.2 ml of solutions were respectively taken from each of the samples, and added to acetonitrile (0.4 ml) cooled to −20° C. for precipitation of protein.

For data set [4] the following is noted: rabbit plasma, 37° C.; for Sampling time/dissociation percent (%) 15 s / Sampling time/dissociation percent (%) 30 s: formula F derivatives.
Protocol: (§1) 0.1 ml samples were taken from each of the solutions, added respectively to 1 ml of blood plasma of rabbit (taken from New Zealand white rabbits, treated according to conventional methods, anticoagulated with heparin) or 1 ml of blood plasma of rat (taken from live SD rats, treated according to conventional methods, anticoagulated with heparin), homogeneously mixed, and placed in a thermostatic water bath at 37° C. for incubation with time being recorded. Samples were taken at different time points after the experiment began, and 2 ml of acetonitrile was immediately added. The samples were shaken and centrifuged for 5 min (15,000 rpm), and the supernatant was then taken for HPLC analysis.
For data set [5] the following is noted: rat plasma, 37° C.
Protocol: as §1
Where [6] appears, read: PC-3 xenograft, nude mice, 13 mg/kg, D0 IV, single dose.
Where [7] appears, read: PC-3 xenograft, nude mice, 13 mg/kg, D0 IV, single dose, D6.
Where [8] appears, read: formula F derivatives, sampling time 5 s.
[9] abbreviates: PC-3 xenograft, nude mice, 7 mg/kg, D0 IV, single dose.

`CCN(C)CC[C@@H](F)C(=O)O[C@@H](C(=O)O[C@H]1C[C@@]2(O)[C@@H](OC(=O)c3ccccc3)[C@@H]3[C@]4(OC(C)=O)CO[C@@H]4C[C@H](OC)[C@@]3(C)C(=O)[C@H](OC)C(=C1C)C2(C)C)[C@@H](NC(=O)OC(C)(C)C)c1ccccc1.O=C(O)/C=C\C(=O)O` [Compound 30, 2′-O-[4-(N-methyl-N-ethyl)amino-2(R)-fluorobutyryl]cabazitaxel maleate]: the “T/C (%) D20” value in data set [1] (setting [6]) is −56%.

Take `CCN(CC)CC[C@@H](F)C(=O)O[C@@H](C(=O)O[C@H]1C[C@@]2(O)[C@@H](OC(=O)c3ccccc3)[C@@H]3[C@]4(OC(C)=O)CO[C@@H]4C[C@H](OC)[C@@]3(C)C(=O)[C@H](OC)C(=C1C)C2(C)C)[C@@H](NC(=O)OC(C)(C)C)c1ccccc1.CS(=O)(=O)O` [Compound 31, 2′-O-[4-(N,N-diethyl)amino-2(R)-fluorobutyryl]cabazitaxel methanesulfonate]: in data set [1] (setting [6]), the “T/C (%) D20” value is −50%.

With `CO[C@H]1C(=O)[C@]2(C)[C@@H](OC)C[C@H]3OC[C@@]3(OC(C)=O)[C@H]2[C@H](OC(=O)c2ccccc2)[C@]2(O)C[C@H](OC(=O)[C@H](OC(=O)[C@H](F)CCN(C)C(C)C)[C@@H](NC(=O)OC(C)(C)C)c3ccccc3)C(C)=C1C2(C)C.Cl` [Compound 32, 2′-O-[4-(N-methyl-N-isopropyl)amino-2(R)-fluorobutyryl]cabazitaxel hydrochloride], in data set [1] (setting [6]), the “T/C (%) D20” value is listed as −45%.

Turning to `CO[C@H]1C(=O)[C@]2(C)[C@@H](OC)C[C@H]3OC[C@@]3(OC(C)=O)[C@H]2[C@H](OC(=O)c2ccccc2)[C@]2(O)C[C@H](OC(=O)[C@H](OC(=O)[C@@H](CCN(C)C)C(F)(F)F)[C@@H](NC(=O)OC(C)(C)C)c3ccccc3)C(C)=C1C2(C)C.CS(=O)(=O)O` [Compound 33, 2′-O-[4-(N,N-dimethyl)amino-2(R)-2-trifluoromethylbutyryl]cabazitaxel methanesulfonate], the “T/C (%) D20” value in data set [1] (setting [6]) is listed as −46%.

As for `CO[C@H]1C(=O)[C@]2(C)[C@@H](OC)C[C@H]3OC[C@@]3(OC(C)=O)[C@H]2[C@H](OC(=O)c2ccccc2)[C@]2(O)C[C@H](OC(=O)[C@H](OC(=O)[C@@H](CCN(C)C)C(F)F)[C@@H](NC(=O)OC(C)(C)C)c3ccccc3)C(C)=C1C2(C)C.Cc1ccc(S(=O)(=O)O)cc1` [Compound 34, 2′-O-[4-(N,N-dimethyl)amino-2(R)-2-difluoromethylbutyryl] cabazitaxel p-toluene sulfonate], in data set [1] (setting [6]), the “Tumor volume (mm^3) (D0)” value turned out to be 116.7 ± 3.9 mm^3, the “T/C (%) D20” value is given as −37%, the “Tumor inhibitory percent (%) D20” value was found to be 85% and the “Tumor volume (mm^3) (D20)” value turned out to be 48.4 ± 14.7 mm^3. Further, the “Weight change (%) D6” value in data set [1] (setting [7]) is on record as −16.1%.

`CO[C@H]1C(=O)[C@]2(C)[C@@H](OC)C[C@H]3OC[C@@]3(OC(C)=O)[C@H]2[C@H](OC(=O)c2ccccc2)[C@]2(O)C[C@H](OC(=O)[C@H](OC(=O)[C@H](F)CCCN(C)C)[C@@H](NC(=O)OC(C)(C)C)c3ccccc3)C(C)=C1C2(C)C.Cl` [Compound 35, 2′-O-[5-(N,N-dimethyl)amino-2(R)-fluorovaleryl]cabazitaxel hydrochloride]: in data set [1] (setting [6]), the “Tumor volume (mm^3) (D0)” value was 112.9 ± 4.4 mm^3, the “T/C (%) D20” value was −28%, the “Tumor inhibitory percent (%) D20” value is 64% and the “Tumor volume (mm^3) (D20)” value is given as 55.3 ± 13.8 mm^3. Besides, the “Weight change (%) D6” value in data set [1] (setting [7]) is on record as −16.6%.

Regarding `CO[C@H]1C(=O)[C@]2(C)[C@@H](OC)C[C@H]3OC[C@@]3(OC(C)=O)[C@H]2[C@H](OC(=O)c2ccccc2)[C@]2(O)C[C@H](OC(=O)[C@H](OC(=O)[C@H](F)CCCCN(C)C)[C@@H](NC(=O)OC(C)(C)C)c3ccccc3)C(C)=C1C2(C)C.O=S(=O)(O)O` [Compound 36, 2′-O-[6-(N,N-dimethyl)amino-2(R)-fluorohexanoyl]cabazitaxel sulfate], in data set [1] (setting [6]), the “Tumor volume (mm^3) (D0)” value came out at 111.9 ± 3.7 mm^3, the “T/C (%) D20” value was −20%, the “Tumor inhibitory percent (%) D20” value is listed as 46% and the “Tumor volume (mm^3) (D20)” value stood at 66.8 ± 12.4 mm^3. For the same compound, the “Weight change (%) D6” value in data set [1] (setting [7]) is −16.8%.

On to `CO[C@H]1C(=O)[C@]2(C)[C@@H](OC)C[C@H]3OC[C@@]3(OC(C)=O)[C@H]2[C@H](OC(=O)c2ccccc2)[C@]2(O)C[C@H](OC(=O)[C@H](OC(=O)[C@H](F)CCN(C)C)[C@@H](NC(=O)OC(C)(C)C)c3ccccc3)C(C)=C1C2(C)C.CS(=O)(=O)O` [Compound C7, 2′-O-[4-(N,N-dimethyl)amino-2(R)-fluorobutyryl]cabazitaxel methanesulfonate], for which the dissociation percent in data set [2] (2 min) was 49.7%; in data set [2] (5 min), 88.9%; in data set [2] (10 min), 100%; in data set [3] (5 min), 78.4%; in data set [3] (20 min), 94.8%; in data set [3] (60 min), 100%. The “T/C (%) D20” value in data set [1] (setting [6]) is recorded as −67%.

Consider `CO[C@H]1C(=O)[C@]2(C)[C@@H](OC)C[C@H]3OC[C@@]3(OC(C)=O)[C@H]2[C@H](OC(=O)c2ccccc2)[C@]2(O)C[C@H](OC(=O)[C@H](OC(=O)[C@@H](F)CCN(C)C)[C@@H](NC(=O)OC(C)(C)C)c3ccccc3)C(C)=C1C2(C)C.CS(=O)(=O)O` [Compound C8, 2′-O-[4-(N,N-dimethyl)amino-2(S)-fluorobutyryl]cabazitaxel methanesulfonate], for which the dissociation percent in data set [2] (2 min) is given as 49.4%; in data set [2] (5 min), 88.4%; in data set [2] (10 min) it was 100%; in data set [3] (5 min), 85.6%; in data set [3] (20 min), 94.5%; in data set [3] (60 min) it was 100%. Further, the “T/C (%) D20” value in data set [1] (setting [6]) is −66%.

With `CC(C)c1cccc(C(C)C)c1OC(=O)[C@H](F)CCN1CCCC1.Cl` [Compound E8, propofol 4-(pyrrolidin-1-yl)-2(R)-2-fluorobutyrate hydrochloride], the dissociation percent in data set [4] (15 s) is 91.1%; in data set [4] (30 s), 98.2%; in data set [5] (5 s) it was 95.6%.

As to `CC(C)c1cccc(C(C)C)c1OC(=O)C(F)CCC(=O)[O-].[K+]` [Compound F2, propofol 4-carboxyl-2(S)-fluorovalerate potassium salt], in data set [4] (sampling time 15 s), the “Sampling time/dissociation percent (%) 15 s” value is reported as 73.4%. The “Sampling time/dissociation percent (%) 30 s” value in data set [4] (sampling time 30 s) was 94.8%. Further, the “Sampling time/dissociation percent (%) 5 s” value in data set [5] (setting [8]) stood at 92.3%.

On to `CC(C)c1cccc(C(C)C)c1OC(=O)C(CCC(=O)[O-])C(F)(F)F.[Li+]` [Compound F3, propofol 4-carboxyl-2(R)-2-trifluoromethyl valerate lithium salt], for which the “Sampling time/dissociation percent (%) 15 s” value in data set [4] (sampling time 15 s) was found to be 28.4%. Also, the “Sampling time/dissociation percent (%) 30 s” value in data set [4] (sampling time 30 s) was determined as 47.9%. Further, the “Sampling time/dissociation percent (%) 5 s” value in data set [5] (setting [8]) stood at 47.4%.

For `CC(C)c1cccc(C(C)C)c1OC(=O)C(F)CCCC(=O)[O-].CC(C)c1cccc(C(C)C)c1OC(=O)C(F)CCCC(=O)[O-].[Zn+2]` [Compound F5, di[propofol 5-carboxyl-2(S)-fluorohexanoate] zinc salt], the results for the “Sampling time/dissociation percent (%) 15 s” value in data set [4] (sampling time 15 s) and in data set [5] (formula F derivatives) were 34.9% and 80.3%, respectively. Also, the “Sampling time/dissociation percent (%) 30 s” value in data set [4] (sampling time 30 s) is on record as 58.8%. Also, the “Sampling time/dissociation percent (%) 5 s” value in data set [5] (setting [8]) is given as 63.2%.

For the compound `CC(C)c1cccc(C(C)C)c1OC(=O)C(F)C(=O)[O-].[Na+]` [Compound F8, propofol 2-carboxyl-2(S)-fluoropropionate sodium salt], the “Sampling time/dissociation percent (%) 15 s” value in data set [4] (sampling time 15 s) was found to be 41.2%; in data set [5] (formula F derivatives) it was 69.3%. Further, the “Sampling time/dissociation percent (%) 30 s” value in data set [4] (sampling time 30 s) is on record as 70.4%; in data set [5] (formula F derivatives, sampling time 30 s) it was 83.3%. Also, the “Sampling time/dissociation percent (%) 5 s” value in data set [5] (setting [8]) is listed as 55.5%.

Regarding `CC(C)c1cccc(C(C)C)c1OC(=O)[C@@H](CCOP(=O)([O-])[O-])C(F)(F)F.[Li+].[Li+]` [Compound G3, {1-[4-(2,6-diisopropylphenoxy)-4-oxo-3-(R)-3-trifluoromethyl-1-butyl]} phosphate monoester dilithium salt], the “Sampling time/dissociation percent (%) 15 S” value in data set [4] (formula G derivatives, sampling time 15 s) came out at 21.7%. In addition, the “Sampling time/dissociation percent (%) 30 S” value in data set [4] (formula G derivatives, sampling time 30 s) worked out at 43.6%. In addition, the “Sampling time/dissociation percent (%) 5 S” value in data set [5] (formula G derivatives, sampling time 5 s) was determined as 38.7%.

Turning to `CO[C@H]1C(=O)[C@]2(C)[C@@H](OC)C[C@H]3OC[C@@]3(OC(C)=O)[C@H]2[C@H](OC(=O)c2ccccc2)[C@]2(O)C[C@H](OC(=O)[C@H](O)[C@@H](NC(=O)OC(C)(C)C)c3ccccc3)C(C)=C1C2(C)C` [cabazitaxel, reference compound], in data set [1] (setting [9]), the “Tumor volume (mm^3) (D0)” value is given as 111.7 ± 1.8 mm^3, the “T/C (%) D20” value is recorded as −27%, the “Tumor inhibitory percent (%) D20” value is recorded as 127% and the “Tumor volume (mm^3) (D20)” value amounted to 79.9 ± 24.8 mm^3. In data set [1] (mouse, in vivo, iv, 7 mg/kg), the “Weight change (%) D6” value is on record as −13.8%.
